Numbers after ± are expanded uncertainties.
Key:
[1] = mn = molality of the nth substance listed, in mol/kg; details: for surface tension liquid-gas: Pendant drop shape; for viscosity / speed of sound / mass density: 101 kPa, Liquid; for viscosity: Capillary tube (Ostwald / Ubbelohde) method; for speed of sound: Sing-around technique in a fixed-path interferometer; for mass density: Vibrating tube method
[2] = for surface tension liquid-gas: Pendant drop shape; for viscosity / mass density: 101.33 kPa, Liquid; for viscosity: Capillary tube (Ostwald / Ubbelohde) method; for mass density: Vibrating tube method

## C[C@H](N)C(=O)O [(S)-2-aminopropanoic acid] + O
[1]; 293.15 K, m1 = 0.0503
  surface tension liquid-gas: 72.86 ± 0.65 mN/m
[1]; 293.15 K, m1 = 0.0755
  surface tension liquid-gas: 72.91 ± 0.65 mN/m
[1]; 293.15 K, m1 = 0.1009
  surface tension liquid-gas: 72.78 ± 0.65 mN/m
[1]; 293.15 K, m1 = 0.1263
  surface tension liquid-gas: 72.66 ± 0.65 mN/m
[1]; 293.15 K, m1 = 0.1518
  surface tension liquid-gas: 72.53 ± 0.64 mN/m
[1]; 298.15 K, m1 = 0.0503
  surface tension liquid-gas: 72.07 ± 0.64 mN/m
[1]; 298.15 K, m1 = 0.0755
  surface tension liquid-gas: 72.12 ± 0.64 mN/m
[1]; 298.15 K, m1 = 0.1009
  surface tension liquid-gas: 72 ± 0.64 mN/m
[1]; 298.15 K, m1 = 0.1263
  surface tension liquid-gas: 71.88 ± 0.64 mN/m
[1]; 298.15 K, m1 = 0.1518
  surface tension liquid-gas: 71.76 ± 0.64 mN/m
[1]; 303.15 K, m1 = 0.0503
  surface tension liquid-gas: 71.28 ± 0.63 mN/m
[1]; 303.15 K, m1 = 0.0755
  surface tension liquid-gas: 71.33 ± 0.63 mN/m
[1]; 303.15 K, m1 = 0.1009
  surface tension liquid-gas: 71.38 ± 0.64 mN/m
[1]; 303.15 K, m1 = 0.1263
  surface tension liquid-gas: 71.43 ± 0.64 mN/m
[1]; 303.15 K, m1 = 0.1518
  surface tension liquid-gas: 71.48 ± 0.64 mN/m
[1]; 308.15 K, m1 = 0.0503
  surface tension liquid-gas: 70.46 ± 0.63 mN/m
[1]; 308.15 K, m1 = 0.0755
  surface tension liquid-gas: 70.53 ± 0.63 mN/m
[1]; 308.15 K, m1 = 0.1009
  surface tension liquid-gas: 70.58 ± 0.63 mN/m
[1]; 308.15 K, m1 = 0.1263
  surface tension liquid-gas: 70.63 ± 0.63 mN/m
[1]; 308.15 K, m1 = 0.1518
  surface tension liquid-gas: 70.68 ± 0.63 mN/m

## O [water] + C[C@H](N)C(=O)O
[1]; 293.15 K, m2 = 0
  surface tension liquid-gas: 72.75 ± 0.65 mN/m
[1]; 298.15 K, m2 = 0
  surface tension liquid-gas: 71.97 ± 0.64 mN/m
[1]; 303.15 K, m2 = 0
  surface tension liquid-gas: 71.18 ± 0.63 mN/m
[1]; 308.15 K, m2 = 0
  surface tension liquid-gas: 70.38 ± 0.63 mN/m

## CCCCCCCC[N+](C)(CCCCCCCC)CCCCCCCC.[Cl-] [N-methyl-N,N-dioctyl-1-octanaminium chloride] + O
[1]; 293.15 K, m1 = 0.002
  surface tension liquid-gas: 29.98 ± 0.4 mN/m
  viscosity: 1.043 ± 0.022 mPa·s
  speed of sound: 1483.4 ± 0.8 m/s
  mass density: 998.54 ± 0.088 kg/m3
[1]; 298.15 K, m1 = 0.002
  surface tension liquid-gas: 29.17 ± 0.39 mN/m
  viscosity: 0.9291 ± 0.019 mPa·s
  speed of sound: 1497.3 ± 0.81 m/s
  mass density: 997.375 ± 0.088 kg/m3
[1]; 303.15 K, m1 = 0.002
  surface tension liquid-gas: 28.93 ± 0.39 mN/m
  viscosity: 0.8195 ± 0.017 mPa·s
  speed of sound: 1510.7 ± 0.81 m/s
  mass density: 995.978 ± 0.088 kg/m3
[1]; 308.15 K, m1 = 0.002
  surface tension liquid-gas: 28.19 ± 0.38 mN/m
  viscosity: 0.7465 ± 0.016 mPa·s
  speed of sound: 1520.2 ± 0.81 m/s
  mass density: 994.348 ± 0.089 kg/m3

## N[C@@H](Cc1ccccc1)C(=O)O [L-phenylalanine] + O
[1]; 293.15 K, m1 = 0.0505
  surface tension liquid-gas: 72.38 ± 0.64 mN/m
[1]; 293.15 K, m1 = 0.0759
  surface tension liquid-gas: 71.94 ± 0.64 mN/m
[1]; 293.15 K, m1 = 0.1015
  surface tension liquid-gas: 70.99 ± 0.63 mN/m
[1]; 293.15 K, m1 = 0.1273
  surface tension liquid-gas: 70.56 ± 0.63 mN/m
[1]; 293.15 K, m1 = 0.1532
  surface tension liquid-gas: 70.14 ± 0.63 mN/m
[1]; 298.15 K, m1 = 0.0505
  surface tension liquid-gas: 71.09 ± 0.63 mN/m
[1]; 298.15 K, m1 = 0.0759
  surface tension liquid-gas: 70.66 ± 0.63 mN/m
[1]; 298.15 K, m1 = 0.1015
  surface tension liquid-gas: 69.74 ± 0.62 mN/m
[1]; 298.15 K, m1 = 0.1273
  surface tension liquid-gas: 68.37 ± 0.61 mN/m
[1]; 298.15 K, m1 = 0.1532
  surface tension liquid-gas: 66.91 ± 0.6 mN/m
[1]; 303.15 K, m1 = 0.0505
  surface tension liquid-gas: 70.83 ± 0.63 mN/m
[1]; 303.15 K, m1 = 0.0759
  surface tension liquid-gas: 69.91 ± 0.62 mN/m
[1]; 303.15 K, m1 = 0.1015
  surface tension liquid-gas: 68.53 ± 0.61 mN/m
[1]; 303.15 K, m1 = 0.1273
  surface tension liquid-gas: 66.61 ± 0.6 mN/m
[1]; 303.15 K, m1 = 0.1532
  surface tension liquid-gas: 64.53 ± 0.58 mN/m
[1]; 308.15 K, m1 = 0.0505
  surface tension liquid-gas: 70.03 ± 0.62 mN/m
[1]; 308.15 K, m1 = 0.0759
  surface tension liquid-gas: 68.98 ± 0.62 mN/m
[1]; 308.15 K, m1 = 0.1015
  surface tension liquid-gas: 66.59 ± 0.6 mN/m
[1]; 308.15 K, m1 = 0.1273
  surface tension liquid-gas: 65.22 ± 0.59 mN/m
[1]; 308.15 K, m1 = 0.1532
  surface tension liquid-gas: 63.35 ± 0.57 mN/m

## O [water] + NCC(=O)O
[1]; 293.15 K, m2 = 0
  surface tension liquid-gas: 72.75 ± 0.65 mN/m
[1]; 298.15 K, m2 = 0
  surface tension liquid-gas: 71.97 ± 0.64 mN/m
[1]; 303.15 K, m2 = 0
  surface tension liquid-gas: 71.18 ± 0.63 mN/m
[1]; 308.15 K, m2 = 0
  surface tension liquid-gas: 70.38 ± 0.63 mN/m

## O [water]
[2]; 293.15 K
  surface tension liquid-gas: 72.75 ± 0.65 mN/m
  viscosity: 1.002 ± 0.021 mPa·s
  mass density: 998.587 ± 0.088 kg/m3
[2]; 298.15 K
  surface tension liquid-gas: 71.97 ± 0.64 mN/m
  viscosity: 0.8937 ± 0.019 mPa·s
  mass density: 997.425 ± 0.088 kg/m3
[2]; 303.15 K
  surface tension liquid-gas: 71.18 ± 0.63 mN/m
  viscosity: 0.8001 ± 0.017 mPa·s
  mass density: 996.04 ± 0.088 kg/m3
[2]; 308.15 K
  surface tension liquid-gas: 70.38 ± 0.63 mN/m
  viscosity: 0.7225 ± 0.015 mPa·s
  mass density: 994.425 ± 0.089 kg/m3

## NCC(=O)O [2-aminoacetic acid] + O
[1]; 293.15 K, m1 = 0.0502
  surface tension liquid-gas: 72.83 ± 0.65 mN/m
[1]; 293.15 K, m1 = 0.0755
  surface tension liquid-gas: 72.89 ± 0.65 mN/m
[1]; 293.15 K, m1 = 0.1007
  surface tension liquid-gas: 72.77 ± 0.65 mN/m
[1]; 293.15 K, m1 = 0.1261
  surface tension liquid-gas: 72.66 ± 0.65 mN/m
[1]; 293.15 K, m1 = 0.1514
  surface tension liquid-gas: 72.54 ± 0.64 mN/m
[1]; 298.15 K, m1 = 0.0502
  surface tension liquid-gas: 72.09 ± 0.64 mN/m
[1]; 298.15 K, m1 = 0.0755
  surface tension liquid-gas: 72.14 ± 0.64 mN/m
[1]; 298.15 K, m1 = 0.1007
  surface tension liquid-gas: 72.03 ± 0.64 mN/m
[1]; 298.15 K, m1 = 0.1261
  surface tension liquid-gas: 71.88 ± 0.64 mN/m
[1]; 298.15 K, m1 = 0.1514
  surface tension liquid-gas: 71.79 ± 0.64 mN/m
[1]; 303.15 K, m1 = 0.0502
  surface tension liquid-gas: 71.29 ± 0.63 mN/m
[1]; 303.15 K, m1 = 0.0755
  surface tension liquid-gas: 71.35 ± 0.63 mN/m
[1]; 303.15 K, m1 = 0.1007
  surface tension liquid-gas: 71.24 ± 0.63 mN/m
[1]; 303.15 K, m1 = 0.1261
  surface tension liquid-gas: 70.95 ± 0.63 mN/m
[1]; 303.15 K, m1 = 0.1514
  surface tension liquid-gas: 70.84 ± 0.63 mN/m
[1]; 308.15 K, m1 = 0.0502
  surface tension liquid-gas: 70.49 ± 0.63 mN/m
[1]; 308.15 K, m1 = 0.0755
  surface tension liquid-gas: 70.55 ± 0.63 mN/m
[1]; 308.15 K, m1 = 0.1007
  surface tension liquid-gas: 70.6 ± 0.63 mN/m
[1]; 308.15 K, m1 = 0.1261
  surface tension liquid-gas: 70.66 ± 0.63 mN/m
[1]; 308.15 K, m1 = 0.1514
  surface tension liquid-gas: 70.71 ± 0.63 mN/m

## O [water] + N[C@@H](Cc1ccccc1)C(=O)O
[1]; 293.15 K, m2 = 0
  surface tension liquid-gas: 72.75 ± 0.65 mN/m
[1]; 298.15 K, m2 = 0
  surface tension liquid-gas: 71.97 ± 0.64 mN/m
[1]; 303.15 K, m2 = 0
  surface tension liquid-gas: 71.18 ± 0.63 mN/m
[1]; 308.15 K, m2 = 0
  surface tension liquid-gas: 70.38 ± 0.63 mN/m

## CCCCCCCCCCCCCCCC[n+]1ccccc1.[Cl-] [cetylpyridinium chloride] + O
[1]; 293.15 K, m1 = 0.002
  surface tension liquid-gas: 41.75 ± 0.54 mN/m
  viscosity: 1.004 ± 0.021 mPa·s
  speed of sound: 1483.1 ± 0.8 m/s
  mass density: 998.567 ± 0.088 kg/m3
[1]; 298.15 K, m1 = 0.002
  surface tension liquid-gas: 41.6 ± 0.54 mN/m
  viscosity: 0.9033 ± 0.019 mPa·s
  speed of sound: 1497.2 ± 0.81 m/s
  mass density: 997.407 ± 0.088 kg/m3
[1]; 303.15 K, m1 = 0.002
  surface tension liquid-gas: 41.57 ± 0.54 mN/m
  viscosity: 0.8137 ± 0.017 mPa·s
  speed of sound: 1509.4 ± 0.81 m/s
  mass density: 996.012 ± 0.088 kg/m3
[1]; 308.15 K, m1 = 0.002
  surface tension liquid-gas: 41.35 ± 0.54 mN/m
  viscosity: 0.7557 ± 0.016 mPa·s
  speed of sound: 1519.8 ± 0.81 m/s
  mass density: 994.387 ± 0.089 kg/m3
